In PubChem BioAssay (NCI) one finds GI50 and TGI data, which are given here for one compound.

Structures are written as SMILES.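 Method: 48-hour compound exposure of cells in 96-well plates, five concentrations, linear interpolation of endpoints. GI50 is the concentration that inhibits growth by half. TGI is the concentration that stops growth completely.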 Bounds are passed on as bounds.

Some test systems named below: LOX IMVI melanoma; CCRF-CEM leukemia; OVCAR-4 ovarian; K-562 leukemia; HS 578T breast; RPMI-8226 leukemia; MOLT-4 leukemia.
Experiment in all cases: NCI-60 cell line screen, 48 h

For `C#Cc1ccc(-n2c(/C=C/c3ccc(Cl)c(F)c3)nc3ncccc3c2=O)cc1`, the GI50 with LOX IMVI melanoma is 183 nM; in the assay on CCRF-CEM leukemia, 290 nM; with OVCAR-4 ovarian, 270 nM; with K-562 leukemia, 337 nM; with HS 578T breast, 419 nM; in the assay on RPMI-8226 leukemia, 351 nM. Moreover, the GI50 in the assay on MOLT-4 leukemia is 546 nM. Besides, the TGI in the assay with LOX IMVI melanoma is 504 nM; in the assay with CCRF-CEM leukemia, over 100000 nM; in the assay with OVCAR-4 ovarian, 1030 nM; with K-562 leukemia it was over 100000 nM; in the assay with HS 578T breast, over 100000 nM; in the assay with RPMI-8226 leukemia, 2030 nM. In the assay with MOLT-4 leukemia, this compound gave a TGI of over 100000 nM.
